Reference: paper PMC8496750, “Identification of the organic anion transporting polypeptides responsible for the hepatic uptake of the major metabolite of epyrifenacil, S‐3100‐CA, in mice” (Pharmacology Research & Perspectives, 2021)

What was measured:
[1] = target: T1, mouse Oatp1b2 (Mus musculus, UniProt Q9JJL3); assay: Uptake assay for radiolabeled substrates, mouse Oatp1b2 expressing 293FT cells; conditions: 10‐min incubation
T1 sequence (Q9JJL3 1-689): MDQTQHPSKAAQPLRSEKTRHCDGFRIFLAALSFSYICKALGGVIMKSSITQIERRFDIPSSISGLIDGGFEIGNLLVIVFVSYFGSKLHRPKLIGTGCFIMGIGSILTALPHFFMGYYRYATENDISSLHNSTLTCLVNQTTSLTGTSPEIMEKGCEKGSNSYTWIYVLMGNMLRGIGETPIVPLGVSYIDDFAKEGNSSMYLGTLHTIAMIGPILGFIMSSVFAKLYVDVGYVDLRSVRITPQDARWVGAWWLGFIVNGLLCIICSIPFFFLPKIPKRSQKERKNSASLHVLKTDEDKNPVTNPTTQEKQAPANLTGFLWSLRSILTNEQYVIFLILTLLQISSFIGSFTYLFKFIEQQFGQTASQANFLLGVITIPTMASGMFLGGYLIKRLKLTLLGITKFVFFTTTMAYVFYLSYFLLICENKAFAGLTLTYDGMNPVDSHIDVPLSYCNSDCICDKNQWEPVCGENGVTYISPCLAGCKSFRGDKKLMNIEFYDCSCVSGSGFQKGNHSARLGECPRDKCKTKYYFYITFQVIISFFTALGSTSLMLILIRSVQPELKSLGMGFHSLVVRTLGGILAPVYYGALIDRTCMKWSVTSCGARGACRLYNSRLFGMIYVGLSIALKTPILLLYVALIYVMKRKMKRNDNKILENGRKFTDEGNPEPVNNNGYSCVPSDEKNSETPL
Protocol: (§1) 293FT cells were purchased from Thermo Fisher Scientific, Inc.. The cells were grown in Dulbecco's modified Eagle medium (supplemented with 4.5 g/L glucose and 2 mM L‐glutamine) at 37°C, 5% CO2, and 95% humidity. The cells were passaged 3 times per week by harvesting cells using trypsin and plating at a density of 1.0 × 10^4 cells/cm^2 in a 10 cm cell culture plate for maintenance culture. The 293FT cells were detached using trypsin and re‐seeded at a density of 2.5 × 10^4 cells/cm^2 in BioCoat™ Collagen I 6‐well plates (Corning Inc.) for transfection and then treated with 1.2 μg of plasmid vector and 3.2 μl of Lipofectamine™ 2000 Transfection Reagent (Thermo Fisher Scientific, Inc.) according to the manufacturer's instructions. After a 3‐h treatment, the transfection medium was replaced with a fresh cell culture medium and incubated at 37°C with 95% humidity and 5% CO2 until ready for the assay.
(§2) Transport experiments were conducted approximately 24 h post‐transfection. The experiments were initiated by aspirating culture medium and addition of pre‐warmed radiolabeled substrate solution (final 1.0% of acetonitrile or 0.9% of ethanol in phosphate‐buffered saline (PBS[−])) to each well. After a 10‐min incubation, cells were washed twice with 1 ml of ice‐cold PBS(−) and lysed with 700 μl of 1.0 M NaOH for 3 h or more at room temperature. The lysate was transferred to a 1.5‐ml tube, and neutralized with 350 μl of 2.0 M HCl and 350 μl of 2.0% sodium dodecyl sulfate (SDS) solution. From the lysate, 1.0 ml was transferred to a vial containing 10 ml of Emulsifier Scintillator Plus to measure the radioactivity in the LSC. The protein concentration of the cell lysate was also measured using a Pierce™ BCA Protein Assay Kit (Thermo Fisher Scientific, Inc.), which was used to normalize, according to the cell number, the radioactivity in the cell lysate extract. The protein assay was performed in duplicate. Each sample type was assayed in triplicate wells, and each run was performed twice. When the difference in mean uptake between OATP expressing cells and mock cells was more than 2 times, the OATP was judged to be involved in transportation of the substrate. […] Each sample type was assayed in triplicate wells.

[2] = target: T2, human OATP1B1 (Homo sapiens, UniProt Q9Y6L6); assay: Uptake assay for radiolabeled substrates, human OATP1B1 expressing 293FT cells; format: in vitro ADME; conditions: for Ratio of uptake amount relative to the uptake into mock cells: 10‐min incubation
T2 construct: expressed in transfected cells; host or cells: 293FT cells
T2 sequence (Q9Y6L6 1-691): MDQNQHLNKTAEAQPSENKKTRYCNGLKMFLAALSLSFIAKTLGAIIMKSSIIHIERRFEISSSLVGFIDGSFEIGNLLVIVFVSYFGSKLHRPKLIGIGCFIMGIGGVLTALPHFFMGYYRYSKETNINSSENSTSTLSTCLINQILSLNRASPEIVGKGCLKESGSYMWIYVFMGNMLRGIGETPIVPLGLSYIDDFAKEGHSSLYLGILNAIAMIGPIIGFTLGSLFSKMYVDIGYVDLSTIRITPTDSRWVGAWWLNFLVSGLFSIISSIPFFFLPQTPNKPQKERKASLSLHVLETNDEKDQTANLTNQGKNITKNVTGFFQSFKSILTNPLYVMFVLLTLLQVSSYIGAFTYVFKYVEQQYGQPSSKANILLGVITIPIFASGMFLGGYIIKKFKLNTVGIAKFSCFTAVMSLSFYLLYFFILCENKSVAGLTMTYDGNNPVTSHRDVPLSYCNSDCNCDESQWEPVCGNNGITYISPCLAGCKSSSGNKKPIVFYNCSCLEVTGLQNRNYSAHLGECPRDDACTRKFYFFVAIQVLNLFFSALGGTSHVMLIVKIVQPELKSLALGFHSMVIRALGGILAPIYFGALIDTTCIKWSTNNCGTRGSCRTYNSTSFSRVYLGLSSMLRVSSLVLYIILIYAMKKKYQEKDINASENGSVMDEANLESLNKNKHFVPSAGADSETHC
Protocol: as §1, §2

| SMILES | Ratio of uptake amount relative to the uptake into mock cells ([1]; Run_1) | Ratio of uptake amount relative to the uptake into mock cells ([1]; Run_2) | Uptake, times higher than in mock cells [2] [times] | Ratio of uptake amount relative to the uptake into mock cells ([2]; Run_1, mean of 3 replicates) | Ratio of uptake amount relative to the uptake into mock cells ([2]; Run_2, mean of 3 replicates) |
| --- | --- | --- | --- | --- | --- |
| C[C@]12CC[C@@H]3c4ccc(OS(=O)(=O)O)cc4CC[C@H]3[C@@H]1CCC2=O [E3S, Estrone 3‐sulfate] | 23.8 | 19.7 | > 50 | 69.9 | 81.9 |
| C[C@]12CC[C@@H]3c4ccc(O)cc4CC[C@H]3[C@@H]1CC[C@@H]2O[C@@H]1O[C@H](C(=O)O)[C@@H](O)[C@H](O)[C@H]1O [E217βG, Estradiol 17β‐D‐glucuronide] | 8.3 | 14.7 | > 50 | 48.2 | 55.6 |
| Cn1c(C(F)(F)F)cc(=O)n(-c2cc(Oc3cccnc3OCC(=O)O)c(Cl)cc2F)c1=O [S‐3100‐CA] | 11.7 | 6.2 | – | 5.7 | 6.2 |
